The values that follow come from patent US12492169B2, “Aminopyridine compound and application thereof” (priority 2020, dated 2025).

Molecules are shown by their SMILES. ≈ marks a conversion by molar mass, not a printed value. Where “and” joins values, the source holds several entries; their conditions need not be identical. Equal entries are not always repeated. Where two headings read alike, the source gives them in different places.

Data set [1] has as its system Aspergillus fumigatus ATCC-MYA-4609. Briefly: Minimum effective concentration (MEC) test against fungi. It is filed as cell-based. The settings on record: change of hyphae morphology by microscope, 48 hours, three independent experiments. Here is the method:
(§1) To test the minimum inhibitory concentration (MIC) and minimum effective concentration (MEC) of the drug against fungi.
(§2) Aspergillus fumigatus ATCC-MYA-4609; Aspergillus flavus ATCC MYA-1004
(§3) Test medium: RPMI1640 (containing 0.165 M MOPS, pH7.0)
(§4) On the day of the experiment, the compound in the bottle was dissolved in 100% DMSO to a stock solution concentration of 6.24 mg/mL. Then, the mixture was 10-fold diluted with DMSO to 0.624 mg/mL for use.
(§5) A 2-fold gradient dilution of the compound solution (0.624 mg/mL) was performed using DMSO on a 96-microwell plate (V-bottom) to obtain 100× working solutions (wells 1 to 11). 624, 312, 156, 78, 39, 20, 10, 5, 2.5, 1.25, 0.625 μg/mL. 100% DMSO was used as a positive control (well 12). This was the compound stock plate.
(§6) Aspergillus fumigatus ATCC-MYA-4609; Aspergillus flavus ATCC MYA-1004 frozen at −80° C. were streaked on SDA plates and incubated aerobically in a 30±2° C. incubator for 6 days.
(§7) For strains Aspergillus fumigatus ATCC MYA-4609; Aspergillus flavus ATCC MYA-1004, after taking out the plate, 3 mL of 0.9% normal saline containing 0.1% Tween20 was added to the plate and the spores were gently collected. The spores were counted with a hemocytometer and the spore suspension was adjusted to about 5×10^6 spores/mL. Then the spore suspension was diluted to 0.8 to 1×10^5 spores/mL with a test medium.
(§8) 2 μL of 100× working solution from the compound stock plate (prepared in 3.1) was transferred to a round-bottomed 96-well plate (containing 98 μL of test medium), and then 100 μL of fungus inoculum (prepared in 3.2) was added to each well to obtain a MIC test plate. Therefore, the final test concentrations of the compounds were 6.24, 3.12, 1.56, 0.78, 0.39, 0.20, 0.10, 0.05, 0.025, 0.0125, 0.006 μg/mL. 1% DMSO was used as a growth control.
(§9) For mold strains Aspergillus fumigatus ATCC-MYA-4609 and Aspergillus flavus ATCC MYA-1004, all test plates were incubated aerobically in a 35±° C. incubator for 48 hours.
(§10) After incubation, according to the criteria in Table 1 below, the test plate was observed by eye or microscope to determine the MIC (g/mL) and MEC (g/mL) of the test compound against yeast and mold.

Data set [2] deals with Aspergillus flavus ATCC MYA-1004. Described as above. It is filed as cell-based. Conditions: change of hyphae morphology by microscope, 48 hours, three independent experiments. Here is the method:
as §1, §2, §3, §4, §5, §6, §7, §8, §9, §10

Data set [3] relates to Candida parapsilosis ATCC 22019. Kind of data set: Minimum inhibitory concentration (MIC) test against fungi. It is filed as cell-based. The settings on record: ≥50% growth inhibition by eye, three independent experiments (1st, 2nd, 3rd time). As for the experimental part: as §1
(§11) Experimental strains: Candida parapsilosis ATCC 22019; Candida albicans ATCC MYA-2876; Candida albicans WX-CA009; Candida glabrata ATCC15126; Candida tropicalis ATCC 750;
as §3, §4, §5
(§12) Candida parapsilosis ATCC 22019 and Candida albicans ATCC MYA-2876; Candida albicans WX-CA009; Candida glabrata ATCC15126; Candida tropicalis ATCC 750 frozen at −80° C. were streaked on SDA plates and incubated aerobically in a 35±2° C. incubator for 24 hours.
(§13) On the day of the experiment, for strains Candida parapsilosis ATCC 22019, Candida albicans ATCC MYA-2876; Candida albicans WX-CA009; Candida glabrata ATCC15126; Candida tropicalis ATCC 750 and Cryptococcus neoformans H99 ATCC 208821, the plates were taken out and the clones on the plates were picked, suspended in normal saline, and then the turbidity of the fungal suspension was adjusted to OD600=0.2 using a turbidimeter. The fungal suspension contained about 3.0×10^6 CFU/mL. Then the turbidity-adjusted fungal suspension was diluted with a test medium to a concentration of about 3.0×10^3 CFU/mL. This was the inoculum.
as §8
(§14) For strains Candida parapsilosis ATCC 22019; Candida albicans ATCC MYA-2876; Candida albicans WX-CA009; Candida glabrata ATCC15126; Candida tropicalis ATCC 750, all test plates were incubated aerobically in a 35±2° C. incubator for 24 hours.
as §10

Data set [4] concerns Candida glabrata ATCC15126. Described as above. The class given is cell-based. The settings on record: ≥50% growth inhibition by eye, three independent experiments. As for the experimental part: as §1, §11, §3, §4, §5, §12, §13, §8, §14, §10
In data set [5] the test system is Candida albicans WX-CA009. Described as above. It is filed as cell-based. Conditions: ≥50% growth inhibition by eye, three independent experiments. Here is the method: as §1, §11, §3, §4, §5, §12, §13, §8, §14, §10
Data set [6] has as its system Candida tropicalis ATCC 750. The data set is described as above. The class given is cell-based. The settings on record: ≥50% growth inhibition by eye, three independent experiments. Here is the method: as §1, §11, §3, §4, §5, §12, §13, §8, §14, §10
Data set [7] can be described thus: Mouse pharmacokinetic evaluation, intraperitoneal injection after oral ABT. The class given is in vivo. Conditions: ip, female CD-1 mice, 26 mpk, ABT 50 mg/kg orally 2 hours before, plasma; for AUC: read-out: Concentration Integral AUC; for Cmax: read-out: Peak Concentration Cmax; for Tmax: read-out: Peak Time Tmax. The source says: Experimental Purpose: Using female CD-1 mice as test animals, LC/MS/MS was used to measure the plasma drug concentration at different times after intraperitoneal injection of the test compound. To study the pharmacokinetic behavior of the test compound in mice and evaluate its pharmacokinetic characteristics. Drug preparation: An appropriate amount of sample was weighed and then prepared into a clear or suspended solution. Administration scheme: Two healthy female CD-1 mice were taken, purchased from Beijing Vital River Laboratory Animal Technology Co., Ltd., and given a normal diet. The drug was administered through intraperitoneal injection. Operational steps: 2 hours before administration, 1-aminobenzotriazole (ABT) was orally administered (50 mg/kg, 5 mg/mL in normal saline), and after animal administration, about 30 μL of blood was collected at 0.083, 0.25, 0.5, 1, 2, 4, 8, and 24 hours, and placed in commercially available anticoagulant tubes pre-added with EDTA-K2. The tubes were centrifuged for 10 minutes to separate the plasma, and the plasma was stored at −60° C. The content of the target compound in the plasma sample was determined by LC/MS/MS method, and the experimental results are shown in Table 3.

For data set [8], the system named is Cryptococcus neoformans H99 ATCC 208821. Kind of data set: Minimum inhibitory concentration (MIC) test against fungi. The class given is cell-based. Conditions: ≥50% growth inhibition by eye, three independent experiments. As for the experimental part:
as §1
Cryptococcus neoformans H99 ATCC 208821;
as §3, §4, §5
Cryptococcus neoformans H99 ATCC 208821 frozen at −80° C. was streaked on SDA plates and incubated aerobically in a 35±2° C. incubator for 48 hours.
as §13, §8
For Cryptococcus neoformans H99 ATCC 208821, all test plates were incubated aerobically in a 35±2° C. incubator for 72 hours.
as §10

Data set [9] relates to Candida albicans ATCC MYA-2876. The data set is described as above. The class given is cell-based. Conditions: ≥50% growth inhibition by eye, three independent experiments. As for the experimental part:
as §1, §11, §3, §4, §5, §12, §13, §8, §14, §10

Data set [10] concerns Candida albicans ATCC MYA-2876. Briefly: Mouse candidemia efficacy model. It is filed as in vivo. Conditions: female CD-1 mice infected with Candida albicans ATCC MYA-2876; 26 mg/kg intraperitoneally once a day for 7 days after 50 mg/kg ABT orally; n=5. Here is the method: Experimental animals: female CD-1 mice, 7 weeks old, 27 to 29 g, n=5 or 8;
microbial pathogen: Candida albicans ATCC MYA-2876;
inoculation level and route: 2.0 to 4.0E+05 CFU/mouse, infected by tail vein injection;
treatment: The treatment started at 1 hour after infection. Firstly, ABT was administered orally, and 2 hours later, the test compound was injected intraperitoneally once a day for 7 days in total, with an administration volume of 10 mL/kg.
Observation indicators: Changes in body weight and mortality within 7 days after infection in each group of mice.

The mark [11] stands for this setting: Lodderomyces parapsilosis, ATCC22019, 24 h, read-out: MIC.
The mark [12] stands for this setting: Nakaseomyces glabratus, ATCC15126, 24 h, read-out: MIC.
[13] abbreviates: Candida albicans, WXCA009, 24 h, read-out: MIC.
Where [14] appears, read: Candida tropicalis, ATCC750, 24 h, read-out: MIC.
Where [15] appears, read: Cryptococcus neoformans, ATCC208821, 72 h, read-out: MIC.
Setting [16] is: Candida albicans, 24 h, read-out: MIC.

As for `Nc1ncccc1C#CCc1ccc(COc2ccccn2)cc1` [WX003], the MEC in data set [1] is 0.1 µg/mL and 0.2 µg/mL; in [2], 0.2 µg/mL and 0.39 µg/mL. For the same molecule, the minimal inhibitory concentration (MIC) (as a rule, the lowest concentration found to suppress growth) in data set [3] (setting [11]) was found to be 0.025 µg/mL (≈ 0.0793 µM); in data set [4] (setting [12]), 0.39 µg/mL (≈ 1.24 µM); in data set [4] (24 hours), 0.78 µg/mL (≈ 2.47 µM); in data set [5] (setting [13]), 0.0125 µg/mL (≈ 0.0396 µM); in [5] (24 hours), 0.025 µg/mL (≈ 0.0793 µM); in [6] (setting [14]) it was 0.0125 µg/mL (≈ 0.0396 µM). The minimal inhibitory concentration (MIC) in data set [8] (setting [15]) stood at 0.39 µg/mL (≈ 1.24 µM). The AUC in [7] amounted to 27 µM·h. For the same molecule, in data set [7], the Cmax turned out to be 13.5 µM. Moreover, the Tmax (in general, the time from dosing to the highest level) in data set [7] is 0.5 h.
`Nc1ccc(C#CCc2ccc(COc3ccccn3)cc2)c(F)n1` [WX005]: the MEC is 0.39 µg/mL and 0.2 µg/mL in data set [1]; 3.12 µg/mL in [2]. The MIC in data set [3] (setting [11]) stood at 0.2 µg/mL (≈ 0.6 µM); in data set [3] (24 hours) it was 0.1 µg/mL (≈ 0.3 µM); in data set [4] (setting [12]), 1.56 µg/mL (≈ 4.68 µM); in data set [5] (setting [13]), 0.1 µg/mL (≈ 0.3 µM); in data set [5] (24 hours) it was 0.05 µg/mL (≈ 0.15 µM); in data set [9] (setting [16]) it was 0.05 µg/mL (≈ 0.15 µM). The minimum inhibitory concentration (MIC) was 0.1 µg/mL (≈ 0.3 µM) in data set [9] (24 hours), greater than 6.24 µg/mL in data set [8] (setting [15]) and 6.24 µg/mL (≈ 18.7 µM) in data set [8] (72 hours).
In the case of `Cc1nc(N)ccc1C#CCc1ccc(COc2ccccn2)cc1` [WX006], the “protection from death caused by candidemia” value in [10] is reported as “completely protect”. For the same molecule, the MEC in data set [1] was 0.1 µg/mL and 0.05 µg/mL; in data set [2], 0.39 µg/mL and 0.2 µg/mL. In addition, the minimal inhibitory concentration (MIC) in data set [3] (setting [11]) stood at 0.05 µg/mL (≈ 0.152 µM); in data set [4] (setting [12]) it was 0.39 µg/mL (≈ 1.18 µM); in data set [5] (setting [13]), 0.05 µg/mL (≈ 0.152 µM); in data set [5] (24 hours) it was 0.025 µg/mL (≈ 0.0759 µM); in [9] (setting [16]), 0.025 µg/mL (≈ 0.0759 µM); in [9] (24 hours) it was 0.0125 µg/mL (≈ 0.0379 µM). Further, the MIC is 0.0125 µg/mL (≈ 0.0379 µM) in [6] (setting [14]), 0.025 µg/mL (≈ 0.0759 µM) in data set [6] (24 hours) and 0.78 µg/mL (≈ 2.37 µM) in [8] (setting [15]). Further, in data set [7], the AUC stood at 221 µM·h. The Cmax in data set [7] was 23 µM. Besides, the time of peak concentration (Tmax) in [7] came out at 1.5 h.
